From ChEMBL document CHEMBL1799986, “In vitro inhibition of α-carbonic anhydrase isozymes by some phenolic compounds” (Bioorg Med Chem Lett, 2011)

What was measured:
Carbonic anhydrase = target: T1, Carbonic anhydrase (Dicentrarchus labrax, UniProt Q2PCB5); assay: Inhibition of Dicentrarchus labrax CA using 4-nitrophenylacetate substrate by esterase assay
T1 sequence (Q2PCB5 whole entry): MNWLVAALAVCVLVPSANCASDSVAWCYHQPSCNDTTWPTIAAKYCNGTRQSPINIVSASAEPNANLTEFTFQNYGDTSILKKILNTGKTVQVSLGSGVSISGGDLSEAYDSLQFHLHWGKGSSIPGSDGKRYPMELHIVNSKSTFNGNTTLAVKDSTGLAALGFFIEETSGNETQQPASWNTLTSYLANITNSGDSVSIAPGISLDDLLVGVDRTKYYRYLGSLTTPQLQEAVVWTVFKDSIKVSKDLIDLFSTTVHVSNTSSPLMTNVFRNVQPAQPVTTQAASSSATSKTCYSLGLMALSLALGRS

Carbonic anhydrase 1 = Carbonic anhydrase 1 (Homo sapiens, UniProt P00915); assay: Inhibition of human CA1 using 4-nitrophenylacetate substrate by esterase assay
Carbonic anhydrase 2 = Carbonic anhydrase 2 (Homo sapiens, UniProt P00918); assay: Inhibition of human CA2 using 4-nitrophenylacetate substrate by esterase assay
Carbonic anhydrase 6 = Carbonic anhydrase 6 (Homo sapiens, UniProt P23280); assay: Inhibition of human CA6 using 4-nitrophenylacetate substrate by esterase assay
Chain of Carbonic anhydrase 6 (P23280 whole entry): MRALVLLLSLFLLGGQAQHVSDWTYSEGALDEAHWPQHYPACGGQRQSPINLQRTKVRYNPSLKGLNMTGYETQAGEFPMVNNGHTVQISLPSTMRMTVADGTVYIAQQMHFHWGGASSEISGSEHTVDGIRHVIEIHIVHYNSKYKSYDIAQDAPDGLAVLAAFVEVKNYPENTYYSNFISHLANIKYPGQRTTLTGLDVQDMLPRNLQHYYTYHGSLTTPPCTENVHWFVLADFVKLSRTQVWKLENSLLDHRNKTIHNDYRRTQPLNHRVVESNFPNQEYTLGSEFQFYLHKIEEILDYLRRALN

Chain of Carbonic anhydrase 1 (P00915 whole entry): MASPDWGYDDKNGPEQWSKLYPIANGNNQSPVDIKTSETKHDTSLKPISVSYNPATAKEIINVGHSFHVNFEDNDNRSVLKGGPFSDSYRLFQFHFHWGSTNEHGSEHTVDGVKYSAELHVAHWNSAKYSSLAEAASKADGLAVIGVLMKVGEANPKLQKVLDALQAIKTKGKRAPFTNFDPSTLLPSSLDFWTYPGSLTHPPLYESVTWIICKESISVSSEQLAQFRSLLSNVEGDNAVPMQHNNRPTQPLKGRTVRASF

Row | Ki (Carbonic anhydrase) | Ki (Carbonic anhydrase 1) | Ki (Carbonic anhydrase 2) | Ki (Carbonic anhydrase 6) | Structure (SMILES)
1 | 5.93 µM |  |  |  | Oc1ccc(O)cc1 [HYDROQUINONE]
2 | 6.42 µM |  |  |  | Oc1cccc(O)c1 [RESORCINOL]
3 | 9.41 µM | 75.9 µM | 32.8 µM | 17.8 µM | O=C(OC[C@H]1O[C@@H](OC(=O)c2cc(O)c(O)c(OC(=O)c3cc(O)c(O)c(O)c3)c2)[C@H](OC(=O)c2cc(O)c(O)c(OC(=O)c3cc(O)c(O)c(O)c3)c2)[C@@H](OC(=O)c2cc(O)c(O)c(OC(=O)c3cc(O)c(O)c(O)c3)c2)[C@@H]1OC(=O)c1cc(O)c(O)c(OC(=O)c2cc(O)c(O)c(O)c2)c1)c1cc(O)c(O)c(OC(=O)c2cc(O)c(O)c(O)c2)c1 [TANNIC ACID]
4 | 4.39 µM | 7.41 µM | 0.54 µM | 0.52 µM | Oc1cccc(O)c1O [PYROGALLOL]
5 | 3.21 µM |  |  | 4.72 µM | O=C(O)c1ccc(O)c(O)c1 [PROTOCATECHUIC ACID]
6 | 98.3 µM |  |  | 3.17 µM | O=C(O)c1cccc(O)c1 [3-HYDROXYBENZOIC ACID]
7 | 8.46 µM |  |  |  | O=C(O)c1ccc(O)cc1 [PARABEN]
8 | 2.13 µM |  |  |  | O=C(O)c1cc(O)cc(O)c1 [3,5-DIHYDROXYBENZOIC ACID]

Row | Structure (SMILES) | Ki (Carbonic anhydrase) | Ki (Carbonic anhydrase 1) | Ki (Carbonic anhydrase 2) | Ki (Carbonic anhydrase 6)
9 | O=C(O)c1cc(O)c(O)c(O)c1 [GALLIC ACID] | 4.13 µM |  |  | 
10 | Oc1ccccc1O [CATECHOL] | 14.8 µM |  |  | 
11 | O=C(O)c1ccccc1O [SALICYLIC ACID] | 324 µM |  |  | 
12 | Oc1ccccc1 [PHENOL] | 13.7 µM |  |  | 
